Laboratory results from US9340590B2 (priority 2011, dated 2016).
Positions of bridges follow the written chain, without caps; N, C: chain ends. Non-standard residues stand in square brackets, D forms with d. Residues, ends and D or L forms follow the SMILES beside them. Phe(4-tBu) = CC(C)(C)c1ccc(C[C@H](N)C(=O)O)cc1; Phe(2-Cl) = N[C@@H](Cc1ccccc1Cl)C(=O)O; Phe(4-Me) = Cc1ccc(C[C@H](N)C(=O)O)cc1; NMeF = CN[C@@H](Cc1ccccc1)C(=O)O; NMeL = CN[C@@H](CC(C)C)C(=O)O; NMeV = CN[C@H](C(=O)O)C(C)C

Key:
Test in all cases: cell-based
[1] = molecular target: hNav1.7 (Homo sapiens, UniProt Q15858); type: cell-based; conditions: IonWorks Quattro, use-dependent protocol, hNav1.7; read-out: IWQ Use Nav1.7
[2] = molecular target: hNav1.3 (Homo sapiens, UniProt Q9NY46); conditions: IonWorks Quattro, use-dependent protocol, hNav1.3; read-out: IWQ Use Nav1.3
[3] = molecular target: hNav1.5 (Homo sapiens, UniProt Q14524); conditions: IonWorks Quattro, use-dependent protocol, hNav1.5; read-out: IWQ Use Nav1.5
Chain of hNav1.5 (Q14524 whole entry, looked up): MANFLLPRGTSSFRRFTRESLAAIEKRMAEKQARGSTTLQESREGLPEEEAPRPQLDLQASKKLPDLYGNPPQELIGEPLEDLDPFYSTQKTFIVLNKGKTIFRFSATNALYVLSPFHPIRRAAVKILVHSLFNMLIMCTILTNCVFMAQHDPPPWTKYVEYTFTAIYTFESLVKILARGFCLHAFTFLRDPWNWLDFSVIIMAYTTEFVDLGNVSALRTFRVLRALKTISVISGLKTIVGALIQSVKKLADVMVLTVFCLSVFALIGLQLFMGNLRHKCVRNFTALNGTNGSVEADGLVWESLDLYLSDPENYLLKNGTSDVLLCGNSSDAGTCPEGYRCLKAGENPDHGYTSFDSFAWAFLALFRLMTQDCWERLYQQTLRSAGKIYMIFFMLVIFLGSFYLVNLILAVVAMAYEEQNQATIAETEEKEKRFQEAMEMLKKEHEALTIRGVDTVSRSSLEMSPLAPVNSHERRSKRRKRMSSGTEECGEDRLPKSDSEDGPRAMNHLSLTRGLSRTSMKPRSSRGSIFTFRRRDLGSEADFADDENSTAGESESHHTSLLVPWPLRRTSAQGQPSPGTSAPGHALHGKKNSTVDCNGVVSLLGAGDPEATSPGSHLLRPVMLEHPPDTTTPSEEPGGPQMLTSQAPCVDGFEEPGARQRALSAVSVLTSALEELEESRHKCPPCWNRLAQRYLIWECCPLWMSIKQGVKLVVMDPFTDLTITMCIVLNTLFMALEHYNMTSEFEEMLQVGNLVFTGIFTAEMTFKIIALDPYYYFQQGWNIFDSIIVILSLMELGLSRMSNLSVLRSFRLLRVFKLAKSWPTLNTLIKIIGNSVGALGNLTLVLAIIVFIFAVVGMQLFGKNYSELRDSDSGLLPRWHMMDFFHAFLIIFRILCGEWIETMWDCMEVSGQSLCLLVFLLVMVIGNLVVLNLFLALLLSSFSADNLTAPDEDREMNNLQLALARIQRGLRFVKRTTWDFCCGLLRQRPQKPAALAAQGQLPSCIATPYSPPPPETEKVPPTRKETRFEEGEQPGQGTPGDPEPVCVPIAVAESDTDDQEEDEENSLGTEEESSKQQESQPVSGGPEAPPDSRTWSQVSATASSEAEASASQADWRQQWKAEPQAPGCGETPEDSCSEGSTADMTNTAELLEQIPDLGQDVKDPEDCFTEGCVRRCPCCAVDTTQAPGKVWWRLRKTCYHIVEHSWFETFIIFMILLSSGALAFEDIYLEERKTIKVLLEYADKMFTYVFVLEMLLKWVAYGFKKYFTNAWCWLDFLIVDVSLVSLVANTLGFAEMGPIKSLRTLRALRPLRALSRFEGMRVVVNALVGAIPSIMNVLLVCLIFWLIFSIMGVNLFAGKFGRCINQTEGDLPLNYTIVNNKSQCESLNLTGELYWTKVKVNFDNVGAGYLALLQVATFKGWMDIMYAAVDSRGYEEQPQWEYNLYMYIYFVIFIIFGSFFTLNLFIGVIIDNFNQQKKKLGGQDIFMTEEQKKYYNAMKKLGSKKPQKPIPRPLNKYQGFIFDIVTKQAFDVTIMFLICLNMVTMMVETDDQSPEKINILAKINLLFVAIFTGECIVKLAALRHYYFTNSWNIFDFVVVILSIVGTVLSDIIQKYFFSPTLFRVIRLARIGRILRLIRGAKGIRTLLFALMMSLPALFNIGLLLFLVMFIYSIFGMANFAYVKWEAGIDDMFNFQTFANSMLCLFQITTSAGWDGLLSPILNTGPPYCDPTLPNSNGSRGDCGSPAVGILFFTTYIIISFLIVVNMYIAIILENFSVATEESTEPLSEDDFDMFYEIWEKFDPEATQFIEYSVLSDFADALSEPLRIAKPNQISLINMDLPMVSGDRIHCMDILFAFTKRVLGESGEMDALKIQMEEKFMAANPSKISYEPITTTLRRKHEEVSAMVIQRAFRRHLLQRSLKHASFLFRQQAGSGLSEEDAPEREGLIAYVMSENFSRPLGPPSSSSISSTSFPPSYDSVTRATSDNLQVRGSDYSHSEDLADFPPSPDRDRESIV

Chain of hNav1.3 (Q9NY46 whole entry, looked up): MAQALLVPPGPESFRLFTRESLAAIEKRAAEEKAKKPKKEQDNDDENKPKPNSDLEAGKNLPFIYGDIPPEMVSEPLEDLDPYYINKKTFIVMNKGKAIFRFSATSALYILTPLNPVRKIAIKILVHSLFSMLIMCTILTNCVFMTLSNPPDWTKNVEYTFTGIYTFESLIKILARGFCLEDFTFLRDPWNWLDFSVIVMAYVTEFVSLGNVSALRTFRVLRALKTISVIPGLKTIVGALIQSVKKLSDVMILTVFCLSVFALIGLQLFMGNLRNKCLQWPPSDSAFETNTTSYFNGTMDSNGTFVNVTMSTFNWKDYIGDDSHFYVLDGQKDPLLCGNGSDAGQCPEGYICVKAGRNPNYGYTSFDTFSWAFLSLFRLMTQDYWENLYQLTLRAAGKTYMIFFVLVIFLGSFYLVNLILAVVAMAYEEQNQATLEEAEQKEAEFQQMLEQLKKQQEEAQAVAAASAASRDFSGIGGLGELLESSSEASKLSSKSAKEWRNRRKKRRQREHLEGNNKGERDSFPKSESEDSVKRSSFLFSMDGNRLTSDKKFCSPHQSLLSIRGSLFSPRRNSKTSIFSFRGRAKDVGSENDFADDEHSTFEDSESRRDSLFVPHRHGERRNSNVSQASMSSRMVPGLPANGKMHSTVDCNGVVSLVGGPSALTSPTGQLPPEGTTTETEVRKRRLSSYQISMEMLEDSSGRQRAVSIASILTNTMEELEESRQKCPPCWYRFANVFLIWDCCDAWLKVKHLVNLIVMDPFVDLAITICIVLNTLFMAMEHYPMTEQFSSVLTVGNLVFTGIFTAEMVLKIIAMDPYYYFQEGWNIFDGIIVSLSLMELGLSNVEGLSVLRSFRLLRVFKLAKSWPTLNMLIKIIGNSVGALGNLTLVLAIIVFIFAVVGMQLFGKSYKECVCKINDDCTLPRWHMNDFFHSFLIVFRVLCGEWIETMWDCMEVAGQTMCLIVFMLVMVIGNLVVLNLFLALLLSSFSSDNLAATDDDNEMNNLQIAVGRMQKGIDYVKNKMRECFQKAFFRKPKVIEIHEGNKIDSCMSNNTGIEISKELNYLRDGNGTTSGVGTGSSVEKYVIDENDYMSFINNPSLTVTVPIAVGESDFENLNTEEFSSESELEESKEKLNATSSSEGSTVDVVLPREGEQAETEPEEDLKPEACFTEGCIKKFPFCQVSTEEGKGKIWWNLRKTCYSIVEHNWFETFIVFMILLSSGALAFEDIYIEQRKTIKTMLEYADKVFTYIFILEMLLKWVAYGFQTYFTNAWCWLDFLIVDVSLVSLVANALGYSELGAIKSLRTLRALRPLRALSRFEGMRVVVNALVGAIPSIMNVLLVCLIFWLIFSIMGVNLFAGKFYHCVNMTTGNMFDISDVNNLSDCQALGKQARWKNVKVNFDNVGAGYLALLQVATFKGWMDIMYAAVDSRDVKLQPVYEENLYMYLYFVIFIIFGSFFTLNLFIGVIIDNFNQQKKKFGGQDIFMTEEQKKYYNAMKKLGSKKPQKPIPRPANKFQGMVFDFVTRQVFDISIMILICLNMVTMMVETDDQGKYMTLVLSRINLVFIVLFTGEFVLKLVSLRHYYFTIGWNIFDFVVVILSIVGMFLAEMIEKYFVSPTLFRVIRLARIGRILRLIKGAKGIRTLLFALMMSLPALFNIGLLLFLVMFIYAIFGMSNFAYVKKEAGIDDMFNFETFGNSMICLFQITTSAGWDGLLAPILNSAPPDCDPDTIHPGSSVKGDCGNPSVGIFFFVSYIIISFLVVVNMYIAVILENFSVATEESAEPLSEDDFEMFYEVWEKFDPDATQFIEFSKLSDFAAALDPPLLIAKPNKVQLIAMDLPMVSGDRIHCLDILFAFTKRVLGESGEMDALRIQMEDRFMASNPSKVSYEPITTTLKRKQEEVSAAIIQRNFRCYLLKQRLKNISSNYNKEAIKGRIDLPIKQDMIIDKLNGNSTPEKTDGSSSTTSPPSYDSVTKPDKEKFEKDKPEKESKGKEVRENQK

Structure (SMILES)	IC50 [1]	IC50 [2]	IC50 [3]
CC[C@H](C)[C@@H]1NC(=O)[C@@H]2CSSC[C@@H]3NC(=O)[C@H](C(C)C)NC(=O)[C@H](CC(C)C)NC(=O)[C@H](CC(N)=O)NC(=O)[C@@H]4CCCN4C(=O)[C@H](CCCNC(=N)N)NC(=O)[C@H](CSSC[C@H](NC(=O)[C@@H](N)CC(=O)O)C(=O)N[C@@H](CC(C)C)C(=O)NCC(=O)N[C@@H](Cc4ccc(C)cc4)C(=O)N[C@@H](Cc4ccccc4)C(=O)N[C@@H](CCCNC(=N)N)C(=O)N[C@@H](CCCCN)C(=O)N2)NC(=O)[C@H](CSSC[C@@H](C(=O)N[C@@H](CCCCN)C(=O)N[C@@H](Cc2ccc(O)cc2)C(=O)N[C@H](C(=O)N[C@@H](Cc2ccccc2)C(N)=O)C(C)C)NC(=O)[C@H](Cc2c[nH]c4ccccc24)NC(=O)[C@H](CCCCN)NC(=O)[C@H](Cc2c[nH]cn2)NC(=O)[C@H]([C@@H](C)O)NC(=O)[C@H](CCCNC(=N)N)NC(=O)[C@H](CO)NC3=O)NC(=O)[C@H](CCCCN)NC(=O)[C@H](CC(=O)O)NC(=O)[C@H](CC(N)=O)NC(=O)[C@H](CC(=O)O)NC(=O)[C@@H]2CCCN2C1=O [compound 625] (H-DCLG[Phe(4-Me)]FRKCIPDNDKCCRPNLVCSRTHKWCKYVF-NH2; disulfide 2-17, 9-23, 16-30)	63 nM	51 nM	6500 nM
CC[C@H](C)[C@@H]1NC(=O)[C@@H]2CSSC[C@@H]3NC(=O)[C@H](C(C)C)NC(=O)[C@H](CC(C)C)NC(=O)[C@H](CC(N)=O)NC(=O)[C@@H]4CCCN4C(=O)[C@H](CCCNC(=N)N)NC(=O)[C@H](CSSC[C@H](NC(=O)[C@@H](N)CC(=O)O)C(=O)N[C@@H](CC(C)C)C(=O)NCC(=O)N[C@@H](Cc4ccc(C(C)(C)C)cc4)C(=O)N[C@@H](Cc4ccccc4)C(=O)N[C@@H](CCCNC(=N)N)C(=O)N[C@@H](CCCCN)C(=O)N2)NC(=O)[C@H](CSSC[C@@H](C(=O)N[C@@H](CCCCN)C(=O)N[C@@H](Cc2ccc(O)cc2)C(=O)N[C@H](C(=O)N[C@@H](Cc2ccccc2)C(N)=O)C(C)C)NC(=O)[C@H](Cc2c[nH]c4ccccc24)NC(=O)[C@H](CCCCN)NC(=O)[C@H](Cc2c[nH]cn2)NC(=O)[C@H]([C@@H](C)O)NC(=O)[C@H](CCCNC(=N)N)NC(=O)[C@H](CO)NC3=O)NC(=O)[C@H](CCCCN)NC(=O)[C@H](CC(=O)O)NC(=O)[C@H](CC(N)=O)NC(=O)[C@H](CC(=O)O)NC(=O)[C@@H]2CCCN2C1=O [compound 626] (H-DCLG[Phe(4-tBu)]FRKCIPDNDKCCRPNLVCSRTHKWCKYVF-NH2; disulfide 2-17, 9-23, 16-30)	52 nM	21 nM	4700 nM
CC[C@H](C)[C@@H]1NC(=O)[C@@H]2CSSC[C@@H]3NC(=O)[C@H](C(C)C)NC(=O)[C@H](CC(C)C)NC(=O)[C@H](CC(N)=O)NC(=O)[C@@H]4CCCN4C(=O)[C@H](CCCNC(=N)N)NC(=O)[C@H](CSSC[C@H](NC(=O)[C@@H](N)CC(=O)O)C(=O)N[C@@H](CC(C)C)C(=O)NCC(=O)N(C)[C@@H](C(C)C)C(=O)N[C@@H](Cc4ccccc4)C(=O)N[C@@H](CCCNC(=N)N)C(=O)N[C@@H](CCCCN)C(=O)N2)NC(=O)[C@H](CSSC[C@@H](C(=O)N[C@@H](CCCCN)C(=O)N[C@@H](Cc2ccc(O)cc2)C(=O)N[C@H](C(=O)N[C@@H](Cc2ccccc2)C(N)=O)C(C)C)NC(=O)[C@H](Cc2c[nH]c4ccccc24)NC(=O)[C@H](CCCCN)NC(=O)[C@H](Cc2c[nH]cn2)NC(=O)[C@H]([C@@H](C)O)NC(=O)[C@H](CCCNC(=N)N)NC(=O)[C@H](CO)NC3=O)NC(=O)[C@H](CCCCN)NC(=O)[C@H](CC(=O)O)NC(=O)[C@H](CC(N)=O)NC(=O)[C@H](CC(=O)O)NC(=O)[C@@H]2CCCN2C1=O [compound 627] (H-DCLG[NMeV]FRKCIPDNDKCCRPNLVCSRTHKWCKYVF-NH2; disulfide 2-17, 9-23, 16-30)	190 nM	250 nM	6000 nM
CC[C@H](C)[C@@H]1NC(=O)[C@@H]2CSSC[C@@H]3NC(=O)[C@H](C(C)C)NC(=O)[C@H](CC(C)C)NC(=O)[C@H](CC(N)=O)NC(=O)[C@@H]4CCCN4C(=O)[C@H](CCCNC(=N)N)NC(=O)[C@H](CSSC[C@H](NC(=O)[C@@H](N)CC(=O)O)C(=O)N[C@@H](CC(C)C)C(=O)NCC(=O)N(C)[C@@H](CC(C)C)C(=O)N[C@@H](Cc4ccccc4)C(=O)N[C@@H](CCCNC(=N)N)C(=O)N[C@@H](CCCCN)C(=O)N2)NC(=O)[C@H](CSSC[C@@H](C(=O)N[C@@H](CCCCN)C(=O)N[C@@H](Cc2ccc(O)cc2)C(=O)N[C@H](C(=O)N[C@@H](Cc2ccccc2)C(N)=O)C(C)C)NC(=O)[C@H](Cc2c[nH]c4ccccc24)NC(=O)[C@H](CCCCN)NC(=O)[C@H](Cc2c[nH]cn2)NC(=O)[C@H]([C@@H](C)O)NC(=O)[C@H](CCCNC(=N)N)NC(=O)[C@H](CO)NC3=O)NC(=O)[C@H](CCCCN)NC(=O)[C@H](CC(=O)O)NC(=O)[C@H](CC(N)=O)NC(=O)[C@H](CC(=O)O)NC(=O)[C@@H]2CCCN2C1=O [compound 628] (H-DCLG[NMeL]FRKCIPDNDKCCRPNLVCSRTHKWCKYVF-NH2; disulfide 2-17, 9-23, 16-30)	76 nM	91 nM	8400 nM
CC[C@H](C)[C@@H]1NC(=O)[C@@H]2CSSC[C@@H]3NC(=O)[C@H](C(C)C)NC(=O)[C@H](CC(C)C)NC(=O)[C@H](CC(N)=O)NC(=O)[C@@H]4CCCN4C(=O)[C@H](CCCNC(=N)N)NC(=O)[C@H](CSSC[C@H](NC(=O)[C@@H](N)CC(=O)O)C(=O)N[C@@H](CC(C)C)C(=O)NCC(=O)N(C)[C@@H](Cc4ccccc4)C(=O)N[C@@H](Cc4ccccc4)C(=O)N[C@@H](CCCNC(=N)N)C(=O)N[C@@H](CCCCN)C(=O)N2)NC(=O)[C@H](CSSC[C@@H](C(=O)N[C@@H](CCCCN)C(=O)N[C@@H](Cc2ccc(O)cc2)C(=O)N[C@H](C(=O)N[C@@H](Cc2ccccc2)C(N)=O)C(C)C)NC(=O)[C@H](Cc2c[nH]c4ccccc24)NC(=O)[C@H](CCCCN)NC(=O)[C@H](Cc2c[nH]cn2)NC(=O)[C@H]([C@@H](C)O)NC(=O)[C@H](CCCNC(=N)N)NC(=O)[C@H](CO)NC3=O)NC(=O)[C@H](CCCCN)NC(=O)[C@H](CC(=O)O)NC(=O)[C@H](CC(N)=O)NC(=O)[C@H](CC(=O)O)NC(=O)[C@@H]2CCCN2C1=O [compound 629] (H-DCLG[NMeF]FRKCIPDNDKCCRPNLVCSRTHKWCKYVF-NH2; disulfide 2-17, 9-23, 16-30)	77 nM	95 nM	13600 nM
CC[C@H](C)[C@@H]1NC(=O)[C@@H]2CSSC[C@@H]3NC(=O)[C@H](C(C)C)NC(=O)[C@H](CC(C)C)NC(=O)[C@H](CC(N)=O)NC(=O)[C@@H]4CCCN4C(=O)[C@H](CCCNC(=N)N)NC(=O)[C@H](CSSC[C@H](NC(=O)[C@@H](N)CC(=O)O)C(=O)N[C@@H](CC(C)C)C(=O)NCC(=O)N[C@@H](Cc4ccccc4Cl)C(=O)N[C@@H](Cc4ccccc4)C(=O)N[C@@H](CCCNC(=N)N)C(=O)N[C@@H](CCCCN)C(=O)N2)NC(=O)[C@H](CSSC[C@@H](C(=O)N[C@@H](CCCCN)C(=O)N[C@@H](Cc2ccc(O)cc2)C(=O)N[C@H](C(=O)N[C@@H](Cc2ccccc2)C(N)=O)C(C)C)NC(=O)[C@H](Cc2c[nH]c4ccccc24)NC(=O)[C@H](CCCCN)NC(=O)[C@H](Cc2c[nH]cn2)NC(=O)[C@H]([C@@H](C)O)NC(=O)[C@H](CCCNC(=N)N)NC(=O)[C@H](CO)NC3=O)NC(=O)[C@H](CCCCN)NC(=O)[C@H](CC(=O)O)NC(=O)[C@H](CC(N)=O)NC(=O)[C@H](CC(=O)O)NC(=O)[C@@H]2CCCN2C1=O [compound 630] (H-DCLG[Phe(2-Cl)]FRKCIPDNDKCCRPNLVCSRTHKWCKYVF-NH2; disulfide 2-17, 9-23, 16-30)	60 nM	9 nM	5800 nM
